Test results taken from US11839212B2, “Synergistic pesticidal compositions and methods for delivery of insecticidal active ingredients” (0903608 B.C. Ltd., priority 2018, dated 2023).
Like-named read-outs stand apart in the source and are kept apart here.

Key:
Assay in all cases: Synergistic Growth Inhibition Assay (MIC and FIC index, 96-well, resazurin)
Assay type in all cases: cell-based
Fusarium oxysporum = conditions: Fusarium oxysporum, Compound B alone
Method in brief: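 Checkerboard dilutions of pesticidal active plus C6–C10 (or C11/C12) aliphatic acid in 96-well plates; growth scored by resazurin colour change, optionally visual.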

Botrytis cinerea = conditions: Botrytis cinerea, 48 h, Compound B alone, 48 hours incubation, read-out: MIC (B)
Method in brief: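 Checkerboard microdilution of pesticidal active ingredient combined with C6–C10 (or C11/C12) aliphatic acid against Botrytis cinerea, with growth read by resazurin colour change plus visual check. FIC index = sum of each agent's concentration in the inhibiting well divided by its MIC alone; 1 denotes additivity.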

Sclerotinia sclerotiorum = conditions: Sclerotinia sclerotiorum, […], Compound B alone, read-out: MIC (B)
Method in brief: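 Checkerboard of pesticidal active ingredient combined with C6–C10 (or C11/C12) aliphatic acids in serial dilutions against Sclerotinia sclerotiorum. Growth scored by resazurin colour change plus visual inspection; FIC index is the sum of each agent's concentration divided by its MIC alone, with 1 indicating additivity.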

Alternaria solani = conditions: Alternaria solani, […], Compound B alone, 7 days incubation, read-out: MIC (B)
Description: In some embodiments, the synergistic action between the pesticidal active ingredient, and the at least one C6-C10 (or alternatively C11 or C12) saturated or unsaturated aliphatic acid components of the pesticidal compositions according to embodiments of the present disclosure was tested using a Synergistic Growth Inhibition Assay, which is derived from and related to a checkerboard assay as is known in the art for testing of combinations of antimicrobial agents. In the Synergistic Growth Inhibition Assay used in accordance with some embodiments of the present disclosure, multiple dilutions of combinations of pesticidal active ingredient and at least one C6-C10 saturated or unsaturated aliphatic acid agents are tested in individual cells for inhibitory activity against a target pest or pathogenic organism. In one such embodiment, the combinations of pesticidal active ingredient and C6-C10 (or alternatively C11 or C12) saturated or unsaturated aliphatic acid agents may preferably be tested in decreasing concentrations. In a further such embodiment, the combinations of pesticidal active ingredient and C6-C10 (or alternatively C11 or C12) saturated or unsaturated aliphatic acid agents may be tested in increasing concentrations. These multiple combinations of the pesticidal active ingredient and at least one C6-C10 (or alternatively C11 or C12) saturated or unsaturated aliphatic acid agents may be prepared in 96-well microtiter plates. In one such embodiment, the Synergistic Growth Inhibition Assay then comprises rows which each contain progressively decreasing concentrations of the pesticidal active ingredient and one or more C6-C10 (or alternatively C11 or C12) saturated or unsaturated aliphatic acid agents to test for the MIC of the agents in combination at which growth of the target pest or pathogen is inhibited. Thus, each well of the microtiter plate is a unique combination of the two agents, at which inhibitory efficacy of the combination against the target pest or pathogen can be determined.
In one embodiment according to the present disclosure, for each row of microtiter cells in the Synergistic Growth Inhibition Assay, the FIC index is calculated from the lowest concentration of the pesticidal active ingredient and one or more C6-C10 saturated or unsaturated aliphatic acid agents necessary to inhibit growth of a target pest or pathogen. The FIC of each component is derived by dividing the concentration of the agent present in that well of the microtiter plate by the minimal inhibitory concentration (MIC) needed of that agent alone to inhibit growth of the target pest or pathogen. The FIC index is then the sum of these values for both agents in that well of the microtiter plate. […] Fractional inhibitory concentration indices may then used as measure of synergy. […] When the FIC index is equal to 1, the combination is additive.
Then, serial dilutions of these initial compositions in successive wells in the row of the microtiter plate were used to assay the pesticidal composition under the same conditions to determine the concentration of the composition combining the two agents corresponding to the microtiter well in which growth inhibition of the target pest or organism ceases.
A culture of the representative fungal pathogen, namely Fusarium oxysporum, Botrytis cinerea, or Sclerotinia sclerotiorum, for example, is grown to exponential phase in potato dextrose broth (PDB).

[1] = 48 h, Table 30, 48 hours incubation, read-out: MIC (B)
[2] = 48 h, Table 32, 48 hours incubation, read-out: MIC (B)

Row | Structure (SMILES) | MIC (Fusarium oxysporum; [1]) [µg/mL] | MIC (Fusarium oxysporum; [2]) [µg/mL] | MIC (Botrytis cinerea; Table 43) [µg/mL] | MIC (Botrytis cinerea; Table 44) [µg/mL] | MIC (Botrytis cinerea; Table 45) [µg/mL] | MIC (Botrytis cinerea; Table 49) [µg/mL] | MIC (Botrytis cinerea; Table 50) [µg/mL] | MIC (Botrytis cinerea; Table 56) [µg/mL] | MIC (Botrytis cinerea; Table 58) [µg/mL] | MIC (Sclerotinia sclerotiorum; 7 days incubation) [µg/mL] | MIC (Sclerotinia sclerotiorum; Table 33, 7 days incubation) [µg/mL] | MIC (Sclerotinia sclerotiorum; Table 35, 7 days incubation) [µg/mL] | MIC (Sclerotinia sclerotiorum; Table 37, 7 days incubation) [µg/mL] | MIC (Sclerotinia sclerotiorum; Table 38, 7 days incubation) [µg/mL] | MIC (Sclerotinia sclerotiorum; Table 39, 7 days incubation) [µg/mL] | MIC (Sclerotinia sclerotiorum; Table 40, 7 days incubation) [µg/mL] | MIC (Alternaria solani) [µg/mL] | MIC (Alternaria solani; Table 60) [µg/mL] | MIC (Botrytis cinerea; Table 47) [µg/mL] | MIC (Sclerotinia sclerotiorum; Table 41, 7 days incubation) [µg/mL] | further results
1 | CCCCCCC/C=C/C(=O)O [Trans-2-decenoic acid, trans-2-decenoic acid] | 78.1 | 156 | 19.5 | 78.1 | 39.1 | 78.1 | 39.1 | 78.1 | 156 | 19.5 | 19.5 | 9.77 | 39.1 | 19.5 | 19.5 | 19.5 | 39.1 | 78.1 | – | – | MIC (Fusarium oxysporum; 24 h, Table 3, 24 hour incubation, read-out: MIC(B)): 36.2 µg/mL; MIC (Fusarium oxysporum; 24 h, Table 4, 24 hour incubation, read-out: MIC (B)): 36.2 µg/mL; MIC (Botrytis cinerea; Table 51): 19.5 µg/mL; MIC (Sclerotinia sclerotiorum; Table 34, 7 days incubation): 19.5 µg/mL; MIC (Sclerotinia sclerotiorum; Table 42, incubation 7 days): 19.5 µg/mL
2 | CCCCCCCC/C=C/C(=O)O [Trans-2-undecenoic acid] | – | 156 | 156 | 78.1 | 78.1 | 78.1 | 39.1 | 39.1 | 156 | – | 19.5 | – | – | 39.1 | 39.1 | – | – | 156 | 78.1 | 39.1 | MIC (Botrytis cinerea; Table 48): 78.1 µg/mL
3 | C/C=C/C=C/C(=O)O [(2E,4E)-2,4-hexadienoic acid] | – | – | 62.5 | 62.5 | – | – | – | 125 | 250 | – | 125 | – | – | – | – | – | – | 125 | – | – | MIC (Fusarium oxysporum; 24 h, Table 1, 24 hour incubation, read-out: MIC(B)): 125 µg/mL; MIC (Fusarium oxysporum; 24 h, Table 2, 24 hour incubation, read-out: MIC (B)): 125 µg/mL; MIC (Fusarium oxysporum; 48 h, Table 27, 48 hours incubation, read-out: MIC (B)): 25 µg/mL
4 | CCCCCC=CCC(=O)O [3-Nonenoic acid] | – | 156 | 78.1 | 78.1 | 78.1 | 78.1 | – | – | – | 78.1 | 19.5 | 39.1 | 78.1 | 78.1 | – | – | – | 78.1 | 78.1 | 39.1 | MIC (Botrytis cinerea; Table 48): 78.1 µg/mL; MIC (Botrytis cinerea; Table 54): 78.1 µg/mL; MIC (Sclerotinia sclerotiorum; Table 36, 7 days incubation): 39.1 µg/mL
5 | CCCCCC/C=C/C(=O)O [Trans-2-nonenoic acid] | 312 | 312 | 78.1 | 39.1 | 39.1 | 156 | – | 156 | – | 78.1 | 19.5 | – | 78.1 | 39.1 | 19.5 | 19.5 | 156 | 78.1 | 78.1 | 39.1 | MIC (Fusarium oxysporum; 48 h, Table 28, 48 hours incubation, read-out: MIC (B)): 156 µg/mL; MIC (Botrytis cinerea; Table 46): 19.5 µg/mL; MIC (Sclerotinia sclerotiorum; Table 36, 7 days incubation): 39.1 µg/mL
